According to patent US6602687B1, “DNA encoding human ciliary neurotrophic factor and method for producing the protein encoded thereby” (Regeneron Pharmaceuticals, Inc., priority 1989, dated 2003):

Legend:
[1] = test system: chick embryonic spinal motorneurons; experiment: Survival of chick embryonic spinal motorneurons in culture; format: cell-based; set-up: key to Survival: −: not significantly different from control (survival: 8.3 ± 3.8%, mean ± SD, n = 18); ±: about 15-20% (statistically significant from each blank control, p < 0.01); + +: about 35-55%; + ++: about 55-75%; conditions: for Survival / Motoneuron survival (%): after 3 days in culture; for Survival: one concentration per molecule, Table VI, CNTF rat, rec.; for survival effect on motoneurons: supramaximal concentrations, NT-3 produced by transfected Cos-cells; for highest survival effect of the concentration-response curve: CNTF = recombinant rat; for Motoneuron survival (%): mean ± SEM (n = 4), IGF-I 1 μg/ml, Basic FGF 30 ng/ml, CNTF 1.5 ng/ml
Description: Motorneuron columns were dissected under a stereomicroscope from the lumbar part of the spinal cord of chick embryos on the 6th day of embryonic development and stored in cold calcium and magnesium-free Hanks balanced salt solution supplemented with glucose (4 g/l) (HBSS). The tissues were washed with HBSS and treated with 0.03% trypsin in HBSS at 37° C. for 20 min with gentle shaking, rinsed with cold HBSS and triturated mildly in 3 steps of 8-passage agitation in 1 ml of cold 0.1% soybean trypsin inhibitor (Sigma) in HBSS through a fire-polished siliconized Pasteur pipette. Each supernatant cell suspension was filtered through 50 μm-Nylon mesh, pooled and layered onto 4 ml of cold 6.8% metrizamide (Fluka) in HBSS-25 mM HEPES (pH7.4) in a 12 ml-siliconized conical glass tube. The tube was centrifuged at 400 g for 15 min at 4° C. and the intermediate layer (0.5 ml) was collected into another siliconized tube containing 6.5 ml of cold culture medium (a mixture of glucose (4 g/l)-supplemented Leibovitz's L-15 medium (Gibco), 0.15 M sodium bicarbonate, heat-inactivated and filtered horse serum and penicillin G (10^5 units/ml) at the ratio of 75:15:10:0.1, freshly prepared and buffered with 5% CO2.) After centrifugation at 100×g for 7 min at 4° C., the supernatant was removed and the cells were gently resuspended in culture medium and plated in Greiner 4-well culture dishes (well diameter, 10 mm; C. A. Greiner und Sohne GmbH, Nurtingen, West Germany) at 1000-2000 cells/well. The dishes had been precoated with poly-DL-ornithine (Sigma, 0.5 mg in 0.15 M sodium borate buffer (pH 8.3) overnight at 4° C., rinsed twice with phosphate-buffered saline (PBS) and subsequently coated with laminin (Gibco; 10 μg/ml in the serum-depleted culture medium) and placed in a 5% CO2-incubator until cell plating (5-6 hrs). Cells were incubated at 37° C. in a humidified 5% CO2- and 95% air-incubator. Samples were added one hr after plating and the culture medium changed after 24 hrs and 72 hrs. The initial cell numbers were counted 3 hrs after plating.
In some experiments motor neurons were retrogradely labeled with a fluorescent dye in vivo before cell preparation (U. Dohrman et al., 1986, Dev. Biol. 118:209-221) to identify the motor neuron cell population. A small hole was made in the shell of eggs which had been incubated for 5 days. Small pieces of rhodamine isothiocyanate crystals (Sigma) were inserted at two or three places into each hind limb thigh and the egg hole was sealed with a cellophane tape. The eggs were incubated for another 24 hrs. Some of the operated embryos were then processed for frozen sections after formaldehyde fixation. […] The other embryos were used for cell preparation using the method described above (18.1.1). After 5 hrs in culture cells were rinsed with warm HBSS, fixed with 4% formaldehyde in PBS at room temperature for 20 min, rinsed with PBS and then mounted in glycerol-PBS (1:1) with glass coverslips. Of the total cells approximately 83% were labeled and identified as motorneurons (FIG. 42.) Most of these labeled motorneurons were large cells and the rest were intermediate-size cells. No small cells were labeled. On the other hand, in experiments in which cells were not labeled with a fluorescent dye about 70% of the total cells were large phase-bright cells with round cell somas, about 20% were intermediate-size neurons (most of them may be motorneurons) and about 10% were small immature neurons (they have neuron-like processes with growth cones but have phase-dark semi-flat cell somas). Non-neuronal cells were either not present or accounted for less than 2%. Taken together, one may conclude that at least 83% of the cells are motorneurons while the remainder consists of non-labeled motorneurons, a small number of unidentified intermediate-size neurons and about 10% immature small neurons. […]

hippocampal neurons = experiment: Glutamate-induced toxicity in hippocampal cultures (MTT assay); format: cell-based, rat; conditions: glutamate 1 mM for 15 minutes, MTT after 20 h
Description: FIG. 38. Protective effect of CNTF on glutamate-induced toxicity in hippocampal cultures. […] Glutamate at various concentations (100-1000 uM) was added for 15 minutes, after which the cells were cultured in the absence of glutamate or CNTF for 20 h. Survival of cells at the end of the culture period was assessed by MTT assay based on the conversion of MTT (3-(4,5-dimethylthiazol-2-yl)-2,5-diphenyl tetrazolium bromide) to a purple product by vital cells. MTT dye was added to a final concentration of 0.5 mg/ml. Dyes taken up by live cells were solubilized by the addition of 0.08N HCI in isopropranol 5 hours later, and O.D. (570-650 nm) was measured.
The effect of CNTF on GABAergic neurons was dependent on the density at which the cells were plated. […] This may be due to an elevated level of neurotrophic factors in high density cultures. […] We have assessed the neurotoxic effects of various concentrations of glutamate (10-1000 μM) by means of a calorimetric MTT assay, as shown in FIG. 38. At a concentration of 1 mM, glutamate reduced cell survival to approximately 10%. In the presence of CNTF ([…]), cell survival following exposure to glutamate was enhanced.

[2] = test system: E8 chick ciliary ganglion neurons; experiment: Survival of dissociated E8 chick ciliary ganglion neurons; format: cell-based; conditions: cultured two days with a range of peptide concentrations
Description: Ciliary neurotrophic factor activity may be evaluated using any CNTF-sensitive in vivo or in vitro system known in the art. For example, and not by way of limitation, in vitro systems have been developed which measure CNTF activity by quantitating 24-hour survival of embryonic (E8) chick ciliary ganglion (CG) neurons in monolayer cultures.
For example, ciliary ganglia may be collected from E8 chick embryos, dissociated (yielding approximately 20,000 cells per ganglion) and then diluted in HEBM medium containing 20 percent horse serum as described in Varon et al. (1979, Brain Res. 173:29-45). […] Culture plates may then be maintained at 37° C. in 5% CO2 for 24 hours, after which the cultures may be fixed by the addition of 200 μl 2 per cent glutaraldehyde in HEBM medium, and the number of surviving neurons may be determined visually by direct count under phase contrast microscopy. […]
Biological activity of recombinant CNTF was assayed on explants of chick embryo dorsal root ganglia (DRG) and dissociated cultures of ciliary ganglion (CG) neurons as described in Lindsay and Rohrer (1985, Devel. Biol 112:30-48). […] In explant cultures CNTF activity was determined by assessing the extent of fiber outgrowth in treated cultures compared to controls. Fiber outgrowth was scored on a scale of 0 to 5+, by comparing cultures to photographs of a dose-response of explanted DRG and NGF. […]

Compound | Survival [1] | survival effect on motoneurons [1] | concentration at which the highest survival effect was obtained ([1]; 3 days in culture) | highest survival effect of the concentration-response curve ([1]; 3 days in culture) | other results
IL-1β: IL-1β (human, rec.) | − | no discernable effect |  |  | 
Basic FGF: basic fibroblast growth factor (human, rec.) | + + (about 35-55%) |  | 30 ng/mL | 51% | Motoneuron survival (%) [1]: 51.9 ± 3.6%; EC50 ([1]; motorneuron survival, 3 days in culture): 0.26 ng/mL
Insulin: Insulin (bovine) | ± (about 15-20% (statistically significant from each blank control, p < 0.01)) |  | 25000 ng/mL | 16% | 
N[C@@H](CCC(=O)O)C(=O)O [glutamate, reference compound] |  |  |  |  | cell survival after glutamate (hippocampal neurons): approximately 10%
TGFβ1: TGFβ1 (porcine, rec.) | − | no discernable effect |  |  | 
Acidic FGF: acidic FGF (human, rec.) | ± (about 15-20% (statistically significant from each blank control, p < 0.01)) |  | 300 ng/mL | 18% | concentration at which the highest survival effect was obtained, in the presence of 1 μg/ml heparin ([1]; 3 days in culture): 100 ng/mL; highest survival effect of the concentration-response curve, in the presence of 1 μg/ml heparin ([1]; 3 days in culture, heparin only first 24 hr): 35%
IGF-II: insulin-like growth factor II (human, rec.) | ± (about 15-20% (statistically significant from each blank control, p < 0.01)) |  | 300 ng/mL | 15% | 
PDGF | − | no discernable effect |  |  | 
Transferrin: Transferrin (human) | − |  |  |  | 
MVLLEQKIPENEADGMPATVGDGGLFEK (MVLLEQKIPENEADGMPATVGDGGLFEK) [28 amino acid synthetic peptide fragment] |  |  |  |  | neurotrophic activity (neuronal survival) [2]: A dose-response relationship was observed
IGF-I: insulin-like growth factor I (human, rec.) | ± (about 15-20% (statistically significant from each blank control, p < 0.01)) |  | 100 ng/mL | 15% | Motoneuron survival (%) [1]: 14.5 ± 0.5 %
TGFa: TGFa (human, rec.) | − | no discernable effect |  |  | 
